Values quoted from earlier work in patent US5032586A, “7-keto or hydroxy 3,5-diene steroids as inhibitors of steroid 5-alpha reductase” (SmithKline Beecham Corporation, priority 1989, dated 1991).

Test system: 5-α-Reductase
Settings: for Type of inhibition (Reversible/Irreversible): Table 1, printed with Ki; for Ki: literature values, Table 1

Compound	Type of inhibition (Reversible/Irreversible)	Inhibition of steroid 5-α-reductase, in words (literature description)	Ki
C=C1C[C@@H]2[C@H](CC[C@@]3(C)[C@H]2CC[C@]3(OC(C)=O)C(C)=O)[C@@]2(C)CCC(=O)C=C12 [(5)]	Irreversible	timedependent inactivator of steroid 5-α-reductase	1250 nM
CCN(CC)C(=O)[C@H]1CC[C@H]2[C@@H]3CC[C@H]4N(C)C(=O)CC[C@]4(C)[C@H]3CC[C@]12C [(4)]	Reversible		5 nM
